Measurements reported in patent US20250388589A1, “TRICYCLIC HETEROCYCLIC DERIVATIVES, COMPOSITIONS AND USES THEREOF” (Danatlas Pharmaceuticals Co., Ltd., priority 2022, published 2025).

Tests used:
Kuramochi cell line = assay: Cell Viability Assay (Cell Titer-Glo, 7 days); type: cell-based; settings: 168 h, Kuramochi cells, 7 days incubation, read-out: PARG Cell viability (IC50)
In short: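 IC50 from a four-parameter fit of CellTiter-Glo luminescence, scaled between DMSO-treated (high) and medium-only (low) wells. Kuramochi cells (400/well, RPMI/10% FBS) exposed 7 days at 37 °C to 9 concentrations, 3-fold steps, in duplicate.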

[1] = molecular target: hPARG (C-terminal His6-tag) (Homo sapiens (Human), UniProt Q86W56); assay: PARG Enzymatic Activity Assay (HTRF); type: biochemical; settings: hPARG 65 pM final, biotinylated-NAD ribosylated PARP1 8 nM final
Chain of hPARG (C-terminal His6-tag) (Q86W56 whole entry): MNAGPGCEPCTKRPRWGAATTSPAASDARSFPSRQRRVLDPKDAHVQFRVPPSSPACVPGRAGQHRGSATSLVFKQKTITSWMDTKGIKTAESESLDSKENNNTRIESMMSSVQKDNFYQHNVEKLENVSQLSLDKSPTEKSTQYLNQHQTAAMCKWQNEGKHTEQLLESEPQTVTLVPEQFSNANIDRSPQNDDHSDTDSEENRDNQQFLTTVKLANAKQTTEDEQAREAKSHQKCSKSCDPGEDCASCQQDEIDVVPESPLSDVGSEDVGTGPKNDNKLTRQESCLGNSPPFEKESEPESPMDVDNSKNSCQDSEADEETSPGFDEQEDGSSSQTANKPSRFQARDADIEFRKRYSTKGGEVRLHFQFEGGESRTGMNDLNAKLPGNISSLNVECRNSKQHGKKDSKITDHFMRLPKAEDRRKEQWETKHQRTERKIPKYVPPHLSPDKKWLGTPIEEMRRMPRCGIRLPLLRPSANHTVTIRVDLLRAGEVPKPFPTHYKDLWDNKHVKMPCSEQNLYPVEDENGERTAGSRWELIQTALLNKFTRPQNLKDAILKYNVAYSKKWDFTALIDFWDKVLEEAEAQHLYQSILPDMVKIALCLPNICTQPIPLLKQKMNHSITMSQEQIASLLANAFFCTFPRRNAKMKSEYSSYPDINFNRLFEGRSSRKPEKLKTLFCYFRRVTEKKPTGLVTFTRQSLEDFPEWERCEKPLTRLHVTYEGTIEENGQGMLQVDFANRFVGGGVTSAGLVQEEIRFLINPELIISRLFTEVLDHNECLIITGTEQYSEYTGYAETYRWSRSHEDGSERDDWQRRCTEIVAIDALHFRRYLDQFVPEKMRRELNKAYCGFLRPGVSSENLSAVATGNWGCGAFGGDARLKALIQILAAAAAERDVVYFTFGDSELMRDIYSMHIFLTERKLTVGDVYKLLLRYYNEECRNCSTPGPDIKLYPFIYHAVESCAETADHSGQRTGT
In short: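 Readout is time-resolved fluorescence at 620 and 665 nm after 60 min RT detection with streptavidin-Eu cryptate and anti-6HIS-XL665; IC50 by 4-parameter fit, 1% DMSO and no-enzyme controls. Reaction: 8 nM final ribosylated PARP1 substrate for 10 min RT, following 60 min RT enzyme (65 pM)–compound preincubation in Tris pH 7.4 buffer with EDTA, DTT, KCl.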

| SMILES | IC50 [1] [nM] | IC50 (Kuramochi cell line) [nM] |
| --- | --- | --- |
| CN(C)C(=O)N1CCC(c2ncnc3c2c2ccc(S(=O)(=O)NC4(C#N)CC4)cc2n3-c2nnc(C(F)F)s2)CC1 [Example 88, 4-(7-(N-(1-Cyanocyclopropyl)sulfamoyl)-9-(5-(difluoromethyl)-1,3,4-thiadiazol-2-yl)-9H-pyrimido[4,5-b]indol-4-yl)-N,N-dimethylpiperidine-1-carboxamide] | < 100 | < 100 |
| N#CC1(NS(=O)(=O)c2ccc3c4c(N5C6CCC5COC6)ncnc4n(-c4nnc(C(F)F)s4)c3c2)CC1 [Example 210, 4-(3-Oxa-8-azabicyclo[3.2.1]octan-8-yl)-N-(1-cyanocyclopropyl)-9-(5-(difluoromethyl)-1,3,4-thiadiazol-2-yl)-9H-pyrimido[4,5-b]indole-7-sulfonamide] | < 100 | < 100 |
| N#CC1(NS(=O)(=O)c2ccc3c4c(C5CCN(C(=O)[C@H]6CCOC6)CC5)ncnc4n(-c4nnc(C(F)F)s4)c3c2)CC1 [Example 115, (S)-N-(1-cyanocyclopropyl)-9-(5-(difluoromethyl)-1,3,4-thiadiazol-2-yl)-4-(1-(tetrahydrofuran-3-carbonyl)piperidin-4-yl)-9H-pyrimido[4,5-b]indole-7-sulfonamide] | < 100 | < 100 |
| CN1CCC(c2ncnc3c2c2ccc(S(=O)(=O)NC4(C#N)CC4)cc2n3-c2nnc(C(F)F)s2)CC1 [Example 146, N-(1-Cyanocyclopropyl)-9-(5-(difluoromethyl)-1,3,4-thiadiazol-2-yl)-4-(1-methylpiperidin-4-yl)-9H-pyrimido[4,5-b]indole-7-sulfonamide] | < 100 | < 100 |
| CN(C)C(=O)N1CC=C(c2ccnc3c2c2ccc(S(=O)(=O)NC4(C)CC4)cc2n3-c2nnc(C(F)F)s2)CC1 [Example 194, 4-(9-(5-(Difluoromethyl)-1,3,4-thiadiazol-2-yl)-7-(N-(1-methylcyclopropyl)sulfamoyl)-9H-pyrido[2,3-b]indol-4-yl)-N,N-dimethyl-3,6-dihydropyridine-1(2H)-carboxamide] | 100 to 1000 | 100 to 1000 |
| CCN1CCN(c2ncnc3c2c2ccc(S(=O)(=O)NC4(C#N)CC4)cc2n3-c2nnc(C(F)F)s2)C[C@@H]1C [Example 163, (S)-N-(1-cyanocyclopropyl)-9-(5-(difluoromethyl)-1,3,4-thiadiazol-2-yl)-4-(4-ethyl-3-methylpiperazin-1-yl)-9H-pyrimido[4,5-b]indole-7-sulfonamide] | 100 to 1000 | < 100 |
| N#CC1(NS(=O)(=O)c2ccc3c4c(N5CCN(c6nccs6)CC5)ncnc4n(-c4nnc(C(F)F)s4)c3c2)CC1 [Example 16, N-(1-Cyanocyclopropyl)-9-(5-(difluoromethyl)-1,3,4-thiadiazol-2-yl)-4-(4-(thiazol-2-yl)piperazin-1-yl)-9H-pyrimido[4,5-b]indole-7-sulfonamide] | 100 to 1000 | 100 to 1000 |
| CN(CC(F)(F)F)C(=O)N1CCN(c2ncnc3c2c2ccc(S(=O)(=O)NC4(C#N)CC4)cc2n3-c2nnc(C(F)F)s2)CC1 [Example 42, 4-(7-(N-(1-Cyanocyclopropyl)sulfamoyl)-9-(5-(difluoromethyl)-1,3,4-thiadiazol-2-yl)-9H-pyrimido[4,5-b]indol-4-yl)-N-methyl-N-(2,2,2-trifluoroethyl)piperazine-1-carboxamide] | < 100 | < 100 |
| N#CC1(NS(=O)(=O)c2ccc3c4c(N5CCN(C(=O)N6CCOCC6)CC5)ncnc4n(-c4nnc(C(F)F)s4)c3c2)CC1 [Example 8, N-(1-Cyanocyclopropyl)-9-(5-(difluoromethyl)-1,3,4-thiadiazol-2-yl)-4-(4-(morpholine-4-carbonyl)piperazin-1-yl)-9H-pyrimido[4,5-b]indole-7-sulfonamide] | < 100 | < 100 |
| CCN(CC)C1CCN(c2ncnc3c2c2ccc(S(=O)(=O)NC4(C#N)CC4)cc2n3-c2nnc(C(F)F)s2)C[C@@H]1F (stereo partly drawn) [Example 206, N-(1-Cyanocyclopropyl)-4-((3S)-4-(diethylamino)-3-fluoropiperidin-1-yl)-9-(5-(difluoromethyl)-1,3,4-thiadiazol-2-yl)-9H-pyrimido[4,5-b]indole-7-sulfonamide] | < 100 | < 100 |
| C[C@@H](O)C(=O)N1CCC(c2ncnc3c2c2ccc(S(=O)(=O)NC4(C#N)CC4)cc2n3-c2nnc(C(F)F)s2)CC1 [Example 107, (R)-N-(1-Cyanocyclopropyl)-9-(5-(difluoromethyl)-1,3,4-thiadiazol-2-yl)-4-(1-(2-hydroxypropanoyl)piperidin-4-yl)-9H-pyrimido[4,5-b]indole-7-sulfonamide] | < 100 | < 100 |
| CN1CCN(c2ccnc3c2c2ccc(S(=O)(=O)NC4(C#N)CC4)cc2n3-c2nnc(C(F)F)s2)CC1 [Example 198, N-(1-Cyanocyclopropyl)-9-(5-(difluoromethyl)-1,3,4-thiadiazol-2-yl)-4-(4-methylpiperazin-1-yl)-9H-pyrido[2,3-b]indole-7-sulfonamide] | < 100 | < 100 |
| N#CC1(NS(=O)(=O)c2ccc3c4c(N5CCC(F)CC5)ncnc4n(-c4nnc(C(F)F)s4)c3c2)CC1 [Example 51, N-(1-Cyanocyclopropyl)-9-(5-(difluoromethyl)-1,3,4-thiadiazol-2-yl)-4-(4-fluoropiperidin-1-yl)-9H-pyrimido[4,5-b]indole-7-sulfonamide] | < 100 | 100 to 1000 |
| C[C@H]1CN(c2ncnc3c2c2ccc(S(=O)(=O)NC4(C)CC4)cc2n3-c2nnc(C(F)F)s2)CCO1 [Example 99, (S)-9-(5-(Difluoromethyl)-1,3,4-thiadiazol-2-yl)-N-(1-methylcyclopropyl)-4-(2-methylmorpholino)-9H-pyrimido[4,5-b]indole-7-sulfonamide] | < 100 | < 100 |
| CN1CCN(C(=O)N2CCN(c3ncnc4c3c3ccc(S(=O)(=O)NC5(C#N)CC5)cc3n4-c3nnc(C(F)F)s3)CC2)CC1 [Example 9, N-(1-Cyanocyclopropyl)-9-(5-(difluoromethyl)-1,3,4-thiadiazol-2-yl)-4-(4-(4-methylpiperazine-1-carbonyl)piperazin-1-yl)-9H-pyrimido[4,5-b]indole-7-sulfonamide] | < 100 | 100 to 1000 |
| CC1(NS(=O)(=O)c2ccc3c4c(C5CCN(C(=O)N6CC[C@@H](O)C6)CC5)ncnc4n(-c4nnc(C(F)F)s4)c3c2)CC1 [Example 132, (R)-9-(5-(Difluoromethyl)-1,3,4-thiadiazol-2-yl)-4-(1-(3-hydroxypyrrolidine-1-carbonyl)piperidin-4-yl)-N-(1-methylcyclopropyl)-9H-pyrimido[4,5-b]indole-7-sulfonamide] | < 100 | < 100 |

Further lines, with some results ahead:

| IC50 [1] [nM] | SMILES | IC50 (Kuramochi cell line) [nM] |
| --- | --- | --- |
| < 100 | CN(C)C(=O)C1CCN(c2ncnc3c2c2ccc(S(=O)(=O)NC4(C#N)CC4)cc2n3-c2nnc(C(F)F)s2)CC1 [Example 179, 1-(7-(N-(1-Cyanocyclopropyl)sulfamoyl)-9-(5-(difluoromethyl)-1,3,4-thiadiazol-2-yl)-9H-pyrimido[4,5-b]indol-4-yl)-N,N-dimethylpiperidine-4-carboxamide] | < 100 |
| < 100 | COC1(C(F)(F)F)CCN(c2ncnc3c2c2ccc(S(=O)(=O)NC4(C#N)CC4)cc2n3-c2nnc(C(F)F)s2)CC1 [Example 47, N-(1-Cyanocyclopropyl)-9-(5-(difluoromethyl)-1,3,4-thiadiazol-2-yl)-4-(4-methoxy-4-(trifluoromethyl)piperidin-1-yl)-9H-pyrimido[4,5-b]indole-7-sulfonamide] | 100 to 1000 |
| < 100 | CN1CCC(C(=O)N2CCN(c3ncnc4c3c3ccc(S(=O)(=O)NC5(C#N)CC5)cc3n4-c3nnc(C(F)F)s3)CC2)C1 (stereo not shown) [Example 67, N-(1-Cyanocyclopropyl)-9-(5-(difluoromethyl)-1,3,4-thiadiazol-2-yl)-4-(4-(1-methylpyrrolidine-3-carbonyl)piperazin-1-yl)-9H-pyrimido[4,5-b]indole-7-sulfonamide] | 100 to 1000 |
| < 100 | CN1CCN(c2ncnc3c2c2ccc(S(=O)(=O)NC4(C#N)CC4)cc2n3-c2nnc(C(F)F)s2)C[C@@H]1CF [Example 203, (R)—N-(1-Cyanocyclopropyl)-9-(5-(difluoromethyl)-1,3,4-thiadiazol-2-yl)-4-(3-(fluoromethyl)-4-methylpiperazin-1-yl)-9H-pyrimido[4,5-b]indole-7-sulfonamide] | < 100 |
| < 100 | CC1(C(=O)N2CCN(c3ncnc4c3c3ccc(S(=O)(=O)NC5(C#N)CC5)cc3n4-c3nnc(C(F)F)s3)CC2)CC1 [Example 10, N-(1-Cyanocyclopropyl)-9-(5-(difluoromethyl)-1,3,4-thiadiazol-2-yl)-4-(4-(1-methylcyclopropane-1-carbonyl)piperazin-1-yl)-9H-pyrimido[4,5-b]indole-7-sulfonamide] | < 100 |
| < 100 | COC(C)(C)C(=O)N1CCC(c2ncnc3c2c2ccc(S(=O)(=O)NC4(C#N)CC4)cc2n3-c2nnc(C(F)F)s2)CC1 [Example 119, N-(1-cyanocyclopropyl)-9-(5-(difluoromethyl)-1,3,4-thiadiazol-2-yl)-4-(1-(2-methoxy-2-methylpropanoyl)piperidin-4-yl)-9H-pyrimido[4,5-b]indole-7-sulfonamide] | < 100 |
| < 100 | CC(C)C(=O)N1CCC(c2ccnc3c2c2ccc(S(=O)(=O)NC4(C#N)CC4)cc2n3-c2nnc(C(F)F)s2)CC1 [Example 197, N-(1-Cyanocyclopropyl)-9-(5-(difluoromethyl)-1,3,4-thiadiazol-2-yl)-4-(1-isobutyrylpiperidin-4-yl)-9H-pyrido[2,3-b]indole-7-sulfonamide] | 100 to 1000 |
